Patent US5196418A, “Hemicholinium lipids and use thereof” (Board of Supervisors, Louisiana State University …, priority 1992, dated 1993)

Columns and labels:
[1] = test system: cell-cell aggregation; assay: Inhibition of cell-cell aggregation (method of Fritz et al.); format: cell-based
From the text: Cell-cell aggregation studies by the method of Fritz et al., J. CeII.

[2] = target: T1, CPT-II (Bos taurus, UniProt Q2KJB7); assay: CPT inhibition (spectrophotometric assay, CPT-II prepared from beef liver); format: biochemical; settings: CPT-II from beef liver, 10 μM decanoyl-CoA, L-carnitine 1 mM and 5 mM, pH 7.4, 30° C.
T1 construct: CPT-II was prepared from beef liver; from tissue; host or cells: beef liver
T1 sequence (Q2KJB7 26-658): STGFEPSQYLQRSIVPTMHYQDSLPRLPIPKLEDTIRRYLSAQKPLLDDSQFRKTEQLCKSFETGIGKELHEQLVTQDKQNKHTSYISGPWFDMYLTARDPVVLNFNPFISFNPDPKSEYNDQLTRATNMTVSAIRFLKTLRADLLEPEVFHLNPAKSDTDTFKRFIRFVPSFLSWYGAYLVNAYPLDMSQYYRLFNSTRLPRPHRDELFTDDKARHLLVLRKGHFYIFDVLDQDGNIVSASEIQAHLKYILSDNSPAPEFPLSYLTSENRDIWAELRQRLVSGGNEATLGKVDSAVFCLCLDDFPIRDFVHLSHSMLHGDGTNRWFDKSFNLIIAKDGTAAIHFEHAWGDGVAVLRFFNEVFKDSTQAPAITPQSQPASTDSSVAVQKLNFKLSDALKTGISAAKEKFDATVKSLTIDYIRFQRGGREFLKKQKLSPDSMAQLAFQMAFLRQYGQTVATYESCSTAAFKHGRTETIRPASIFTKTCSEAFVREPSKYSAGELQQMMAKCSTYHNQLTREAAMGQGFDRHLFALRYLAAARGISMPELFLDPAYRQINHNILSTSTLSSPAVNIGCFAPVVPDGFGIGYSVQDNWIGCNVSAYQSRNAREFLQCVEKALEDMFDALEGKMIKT
Experimental: (§1) Preparation: CPT-II was prepared from beef liver using the methods of P. R. H. Clarke and L. L. Bieber (1981) J. Biol. Chem., 256. 9861-9868.
(§2) In final volume of 1 ml, 20 mm KPO4^-, pH 7.4 at 30° C., 125 μM aldrithiol [4,4-dithio(bis)pyridine], 10 μM decanoyl-CoA, 10 μl enzyme (1.25 μg/ml) and inhibitor were preincubated at 30° C. for 1 min. and the reaction was initiated with L-carnitine. The absorbance change at 324 nm, followed in a spectrophotometer, was linear with time. L-carnitine conc. were 1 mM and 5 mM. H15C conc. ranged from 1.25 μM-12.5 μM (6values).

[3] = target: CPT-II; assay: as above; format: biochemical; settings: Ki 2 μM versus 10.4 μM
Experimental: as §1, §2

Ki [2] [nM] | binding strength relative to palmitoylcholine (from Ki against CPT) [3] | Structure (SMILES) | Ki [1] [nM]
 |  | CCCCCCCCCCCCCCCCC1(O)C[N+](C)(C)CCO1 (racemic) [Example 3, 2-Hexadecyl-2-hydroxy-4,4-dimethylmorpholinium Bromide] | 400
 |  | CCCCCCCCCCCCCCC1(O)C[N+](C)(C)CCO1 (racemic) [Example 5, 2-Hydroxy-4,4-dimethyl-2,-tetradecylmorpholinium Bromide] | 1500
 |  | CCCCCCCCCCCCCCCC(=O)C[N+](C)(C)CCCO [Example 9, N-(3-Hydroxypropyl)-N,N-dimethyl-N-(2-oxoheptadecyl)ammonium Bromide] | 750
2000 | five-fold stronger binding | CCCCCCCCCCCCCCCC1(O)C[N+](C)(C)CCO1.[Br-] (stereo not shown) [Example 4, 2Hydroxy-4,4-dimethyl-2-pentadecylmorpholinium Bromide] | 400
 |  | CCCCCCCCCCCCC1(O)C[N+](C)(C)CCO1 (racemic) [Example 7, 2-Dodecyl-2-hydroxy-4,4-dimethylmorpholinium Bromide] | 12000
